Test results from patent US20180051317A1, “NON-RADIOACTIVE METHOD FOR DETERMINING THE CYTOLITIC ACTIVITY OF AN AGENT WITH RESPECT TO TARGET CELLS, USE THEREOF AND ASSOCIATED KIT” (CLEAN CELLS, priority 2015, published 2018).
Blank lines part the entries; values can stand above or below the molecule they belong to.

How the values were obtained:
Format in all cases: cell-based
Raji cells = assay: cell death induced by a pro-apoptotic chemical agent (nanoluciferase release and TO-PRO-3 flow cytometry); conditions: 48 hours, increasing concentrations; regardless of the method for measuring the mortality
Protocol: Raji cells transformed to stably express nanoluciferase (50 000 cells per well) are cultured for 48 hours at 37° C. (under a humidified atmosphere containing 5% CO2) in the presence of increasing concentrations of staurosporine, which is a pro-apoptotic drug, in RPMI-1640 medium containing 10% of FCS, and in the presence or absence of 0.2% of triton X-100 (to determine the maximum release). At the end of the incubation, 25 μl of supernatant are recovered from each well, transferred into a white “half-well” plate, mixed with 25 μl of NanoGlo® substrate diluted to 1/50 in D-PBS, incubated for 3 minutes and read on a Mithras LB940 luminometer. The results of the reading are expressed in RLU (relative luminescence units). The percentage of dead cells for each concentration of staurosporine is determined according to the formula (RLU[triton-free medium])/(RLU[0.2% triton])×100.
After removing the supernatant, the remainder of the cells are resuspended, extemporaneously mixed with a final concentration of 0.25 μM of the vital marker TO-PRO-3 (Life Technologies) and acquired on a C6 flow cytometer (BD/Accuri). The percentage of dead cells is determined during the analysis of the cytometry data as the percentage of cells having integrated the TO-PRO-3.
Two identical independent experiments were carried out, the results of which are presented on graphs A and B of FIG. 28. […]

[1] = tested on: CHO cells stably expressing TNF-alpha and nanoluciferase; assay: anti-TNF-alpha ADCC assay, 51Cr release method; conditions: mean±SD of 3 experiments
Protocol: (§1) The nanoluciferase method was compared to the ^51Cr method in an anti-TNF-alpha ADCC assay. For this, the CHO cells described in example 7, stably expressing TNF-alpha and nanoluciferase, were used, as was a standard range of adalimumab and of variations at 80% and 125% of this range. Three independent experiments were carried out, according to the same methodology as in the previous examples.

[2] = tested on: CHO cells stably expressing human TNF-alpha in its membraned form; assay: anti-TNF-alpha CDC assay, nanoluciferase release method; conditions: for mean potency: mean±SD
Protocol: (§2) The method for measuring nanoluciferase release was compared to the chromium method in a third model, that of the anti-TNF-alpha antibody adalimumab (Humira®). The present example illustrates the implementation thereof in an assay for measuring the CDC activity. For this, CHO cells pretransformed and selected to stably express human TNF-alpha in its membraned form were transformed to stably express nanoluciferase. […] Briefly, these cells, labeled or not labeled with ^51Cr, were incubated in the presence of increasing concentrations of adalimumab (Humira®) and of a source of complement (from guinea pig (Sigma)). The specific lysis was then measured by the appropriate method (chromium release or nanoluciferase release).
(§3) The percentage of specific lysis obtained for each concentration X is calculated in the same way for the two types of methods, on the basis of the measurements of radioactivity (in CCPM) or of luminescence (in RLU) according to the formula
(§4) The percentages of specific lysis are represented along the y-axis, each point (black circle for nanoluciferase and white squares for ^51Cr) representing the mean of the nine determinations (3 replicates in 3 independent experiments) and the vertical bars representing the standard deviations. The data were modeled by means of a 4-parameter sigmoidal regression using the GraphPad Prism software.

[3] = tested on: CHO cells stably expressing TNF-alpha and nanoluciferase; assay: anti-TNF-alpha ADCC assay, nanoluciferase release method; conditions: mean±SD of 3 experiments
Protocol: as §1

[4] = tested on: CHO cells stably expressing human TNF-alpha in its membraned form; assay: anti-TNF-alpha CDC assay, 51Cr release method; conditions: for mean potency: mean±SD
Protocol: as §2, §3, §4

Raji target cells [5] = assay: anti-CD20 ADCC assay, nanoluciferase release method
Protocol: (§5) The same Raji cells expressing nanoluciferase were or were not labeled with ^51Cr and were used in parallel in the assay.
(§6) Raji target cells transformed to stably express nanoluciferase were incubated or not incubated for 1 hour in a saline solution of Na2CrO4 equivalent to 100 μCi of ^51Cr per million cells, then washed 4 times with RPMI-1640, 10% FCS, and counted. The cells (3000 per well), labeled or not labeled with ^51Cr, were then incubated at 37° C. in a humidified atmosphere at 5% CO2 in flat-bottomed 96-well plates treated for cell culture, in the presence of increasing concentrations of the rituximab antibody (MabThera®) and of cytotoxic effector cells (T lymphocytes expressing CD16, 30 000 cells per well) in RPMI-1640 supplemented with 5% of FCS.
(§7) After 4 hours of incubation, the percentage of specific lysis is measured according to the corresponding method (release of ^51Cr or of nanoluciferase depending on whether the cells have or have not been labeled with chromium): 25 μl of supernatant of the ^51Cr-labeled cells are recovered and deposited on a Lumaplate® (Perkin Elmer). At the same time, for the cells not labeled with ^51Cr, 25 μl of supernatant are recovered from each well, transferred into white “half-well” 96-well plates, mixed with 25 μl of NanoGlo® substrate diluted to 1/50 in D-PBS, incubated for 3 minutes and read on a Mithras LB940 luminometer (Berthold Technologies). After drying overnight, the radioactivity of the supernatants deposited in the Lumaplate® is measured in a Microbeta-Jet counter (Perkin Elmer) and expressed in CCPM (corrected count per minute) after standardization of the detectors.
(§8) The percentage of specific lysis obtained for each concentration X is calculated in the same way for the two types of methods, from the measurements of radioactivity (in CCPM) or of luminescence (in RLU) according to the formula
as §4, with “represented in FIG. 9” for “represented”, “point” for “point (black circle for nanoluciferase and white squares for ^51Cr)”
(§9) This approach also makes it possible to evaluate the accuracy of the method according to the ICH-Q2(R1) criteria.

Raji target cells [6] = assay: anti-CD20 ADCC assay, 51Cr release method
Protocol: as §5, §6, §7, §8
as §4, with “represented in FIG. 9” for “represented”, “point” for “point (black circle for nanoluciferase and white squares for ^51Cr)”
as §9

Raji target cells [7] = assay: anti-CD20 CDC assay, 51Cr release method
Protocol: as §6, §7, §8
as §4, with “represented in FIG. 9” for “represented”, “point” for “point (black circle for nanoluciferase and white squares for ^51Cr)”
as §9
(§10) Using the same type of target cells as that of example 4, the nanoluciferase method was compared to the ^51Cr method in an anti-CD20 CDC assay. The methodology applied was the same as that described in example 4, the cytolytic system being formed by a source of complement. In the same way, a standard range of antibody (rituximab) was used, and also 80% and 125% modified concentration ranges. Three independent experiments were carried out, one of which was carried out by a second operator.

Raji target cells [8] = assay: anti-CD20 CDC assay, nanoluciferase release method
Protocol: as §6, §7, §8
as §4, with “represented in FIG. 9” for “represented”, “point” for “point (black circle for nanoluciferase and white squares for ^51Cr)”
as §9, §10

[9] = guinea pig complement, mean±SD over the whole of the ranges in the 3 experiments
[10] = 51Cr, guinea pig complement, mean±SD over the whole of the ranges in the 3 experiments
[11] = 80% range, mean±SD of 3 experiments
[12] = 125% range, mean±SD of 3 experiments
[13] = mean±SD of 3 experiments, 100% range
[14] = mean±SD, 80%, 100% and 125% ranges, 3 experiments, 4 h, CD16 T lymphocyte effectors
[15] = 100% range, mean±SD of 3 experiments
[16] = complement source, mean±SD, all of the 80%, 100% and 125% ranges

Molecule: CN[C@@H]1C[C@H]2O[C@@](C)([C@@H]1OC)n1c3ccccc3c3c4c(c5c6ccccc6n2c5c31)C(=O)NC4 [staurosporine]
mortality of the target cells (Raji cells): proportional relationship between the concentration of staurosporine and the mortality of the target cells

Molecule: adalimumab
mean potency ([1]; 80% range): 91.4±43.3%
mean potency ([1]; 125% range): 138.5±43.9%
mean potency ([2]; 80% range): 83.4±10.1%
mean potency ([2]; 125% range): 131.7±47.2%
Emax [2, 9]: 45.7±5.1%
Emin [2, 9]: 0.9±1.5%
EC50 ([2]; standard ranges, mean±SD of 3 experiments): 0.1569 ± 0.0234 µg/mL
mean potency ([3]; 80% range): 75.5±15.5%
mean potency ([3]; 125% range): 114.2±22.8%
mean potency ([4]; 51Cr, 80% range): 91.2±23.6%
mean potency ([4]; 51Cr, 125% range): 153.9±29.2%
Emax [4, 10]: 50.4±5.6%
Emin [4, 10]: 3.2±2.8%
EC50 ([4]; chromium, standard ranges, mean±SD of 3 experiments): 0.1508 ± 0.015 µg/mL

potency (EC50[100%]/EC50[X%]×100) (Raji target cells [5]; [11]): 83.6±22%
potency (EC50[100%]/EC50[X%]×100) (Raji target cells [5]; [12]): 119.5±22.7%
EC50 (Raji target cells [5]; [13]): 0.0318 ± 0.0073 µg/mL
potency (EC50[100%]/EC50[X%]×100) (Raji target cells [6]; [11]): 76.7±10%
potency (EC50[100%]/EC50[X%]×100) (Raji target cells [6]; [12]): 131.9±11.9%
EC50 (Raji target cells [6]; [13]): 0.0552 ± 0.0156 µg/mL
EC50 (Raji target cells [7]; [15]): 0.1567 ± 0.0301 µg/mL
EC50 (Raji target cells [8]; [15]): 0.0731 ± 0.0099 µg/mL
Molecule: rituximab
Emax (maximum lysis percentage) (Raji target cells [5]; [14]): 73.6±8.4%
Emin (minimum lysis percentage) (Raji target cells [5]; [14]): 1.2±1.2%
Emax (maximum lysis percentage) (Raji target cells [6]; [14]): 75.7±6.0%
Emin (minimum lysis percentage) (Raji target cells [6]; [14]): 1.0±1.5%
potency (Raji target cells [7]; 80% range, mean±SD): 69.6±12.3%
potency (Raji target cells [7]; 125% range, mean±SD): 131.5±16.4%
Emax (Raji target cells [7]; [16]): 88.6±7.8%
Emin (Raji target cells [7]; [16]): 3.0±3.4%
potency (Raji target cells [8]; 80% range, mean±SD): 65.0±12.9%
potency (Raji target cells [8]; 125% range, mean±SD): 105.8±8.2%
Emax (Raji target cells [8]; [16]): 95.6±7.0%
Emin (Raji target cells [8]; [16]): −0.3±3.2%
